US20220347167A1, “A NEW TREATMENT FOR MEIBOMIAN GLAND DYSFUNCTION” (The Schepens Eye Research Institute, Inc., priority 2019, published 2022)
“Also recorded” adds a separate entry of the source.

Key:
IHMGECs = test: Oil red O (ORO) staining of neutral lipid droplets in IHMGECs; type: cell-based, human
Description: Authenticated IHMGECs were grown and passaged in keratinocyte serum-free medium (KSFM) with 5 ng/mL epidermal growth factor (EGF) and 50 μg/mL bovine pituitary extract (BPE) (Thermo Fisher Scientific, Waltham, Mass.) under 21% O2 (normoxia) [Liu et al. (2010) Investigative ophthalmology & visual science 51:3993-4005; McDermott et al. (2018) Current eye research 43:1097-1101; Liu et al. (2013) Investigative ophthalmology & visual science 54:2541-2550]. Upon reaching 60% to 70% confluence, culture media were replaced by a 1:1 mixture of Dulbecco's modified Eagle's medium and Ham's F12 (DMEM/F12, Corning Life Sciences, Tewksbury, Mass.), supplemented with 10% fetal bovine serum (FBS, Atlanta Biologicals, Flowery Branch, Ga.) [Sullivan et al. (2014) Investigative ophthalmology & visual science 55:3866-3877; Liu et al. (2014) JAMA ophthalmology 132:226-228]. Cells were cultured for 4-10 days under 21% O2 (normoxic) or 1% O2 (hypoxic) conditions. […]
After four days of incubation, cells seeded on chamber slides (Corning, Rochester, N.Y.) were stained with 0.3% Oil red 0 (ORO, Fisher Biotec, Wembley, Wash., Australia) according to the published protocol in Liu et al. (2010) Investigative ophthalmology & visual science 51:3993-4005) and Liu et al. (2014) Toxicology 320:1-5. […] The size of the stained area was quantified using ImageJ [Deutsch et al. (2014) Anal Biochem 445:87-89]. […]

HMGECs = test: Effect of low oxygen mimetic drugs on HMGEC function / lipid induction; type: cell-based, human
[1] = system: apolipoprotein E-deficient (ApoE −/−) mice; test: MGD model in ApoE −/− mice: tear volume and meibomian gland size; type: in vivo, mouse; settings: Roxa 10 mg/kg subcutaneous, three times per week for 12 weeks
Description: Two groups of ApoE KO mice (vehicle-treated ApoE −/−, as control, and Roxa-treated ApoE −/−), as well as wild-type C57BL/6J mice, were measured for weight, tear volume, corneal fluorescein staining and tear breakup time (TBUT). ApoE −/− mice were randomly divided into 2 groups (n=8 mice/group): control and Roxa-treated. The ApoE−/− mice were treated with vehicle control (2% DMSO in sterile saline, subcutaneous injection) or Roxa (10 mg/kg, subcutaneous injection). The injections were administrated three times/week; on Monday, Wednesday, and Friday mornings; for 12 weeks. At the end of the study, the weight, tear volume, corneal fluorescein staining and tear breakup time (TBUT) were weighted again for comparison. The bar chart in FIG. 6 compares mean tear volume of each group of mice after treatment.
After the Roxa treatment, as described in FIG. 6, the eyelids of each mouse were dissected to assess meibomian gland size and morphology. […]
At the beginning of the study, the 16 ApoE−/− mice and 4 wild-type (WT) C57BL/6J mice, 12 weeks of age, were measured for their weight, tear volume, corneal fluorescein staining and tear breakup time (TBUT). […] At the end of the study, the weight, tear volume, corneal fluorescein staining and tear breakup time (TBUT) were measured again. […]

[2] = Percentage of weight gain in ApoE −/− mice; type: in vivo, mouse; settings: Roxa 10 mg/kg subcutaneous, three times per week for 12 weeks, vs vehicle, p<0.05
Description: The whole blood samples of mice were collected by cardiac puncture after sacrificing. The blood samples were allowed to clot by leaving it undisturbed at room temperature for 15 minutes. The clot was removed by centrifuging at 1,000-2,000×g for 10 minutes in a refrigerated centrifuge. The resulting supernatant was designated serum. Then the cholesterol level in the serum was evaluated by using a commercially available cholesterol fluorometric assay kit (#10007640, Cayman Chemical, Mich.). The weight of each mice was measured before and after the experiment. The percentage of weight gain was compared between the Roxa-treated mice and the vehicle-treated mice.
At the beginning of the study, the 16 ApoE−/− mice and 4 wild-type (WT) C57BL/6J mice, 12 weeks of age, were measured for their weight, tear volume, corneal fluorescein staining and tear breakup time (TBUT). The ApoE −/− mice were randomly divide into 2 groups (n=8 mice/group) and treated with vehicle control (2% DMSO in sterile saline, subcutaneous injection) or Roxa (10 mg/kg, subcutaneous injection). The injections were administrated three times per week (on Monday, Wednesday, and Friday mornings) for 12 weeks. […] At the end of the study, the weight, tear volume, corneal fluorescein staining and tear breakup time (TBUT) were measured again. […]

Cc1nc(C(=O)NCC(=O)O)c(O)c2ccc(Oc3ccccc3)cc12 [Roxa, roxadustat]
accumulation of neutral lipid droplets in IHMGECs (area of ORO staining) (IHMGECs; Roxa alone, 21% O2, 4 days): significantly increased; also recorded: duplicated the effect of a hypoxic environment | accumulation of neutral lipid droplets in IHMGECs (area of ORO staining), combination of Roxa and 1% O2 (IHMGECs; Roxa in 1% O2, 4 days): significantly increased; also recorded: further increased | lipid-inducing effect in HMGECs compared with other low oxygen mimetic drugs (HMGECs): stronger lipid-inducing effect | tear volume ([1]; vs control group and WT mice, p<0.01): significantly increased | meibomian gland loss in the mice eyelids (MG area) ([1]; vs control group, p<0.05): significantly reduced | percentage of weight gain [2]: significantly reduced
